Reference: patent US20090253650A1, “Teat antiseptic prepared from polysaccharide gel with bactericidal and immuno-stimulating activity isolated from durian fruit-rind” (priority 2008, published 2009)

System: peritoneal leukocyte
Test: Peritoneal leukocyte count in mice after intraperitoneal injection
Assay type: in vivo
Conditions: 3% thioglycollate (positive control)

thioglycollate was tested, and the “Number of Lymphocyte (mean ± S.E.)” value was 0.86 ± 0.14 ×10^6 cell/ml.
